molecular target: T1, 5-lipoxygenase (Cavia porcellus, UniProt A0A286X958); assay: inhibitory activity on free 5-lipoxygenase concentrated from peritoneal PMNs of the guinea-pig (5-HETE formation); assay type: biochemical; conditions: 10^-5 mole/liter; guinea-pig 5-LO, 37° C.; read-out: In vitro % inhibitory activity on 5-HETE formation caused by free 5-LO
T1 construct: The 5-LO was concentrated in a known manner from PMNs of male Dunkin-Hartley guinea-pigs; endogenous in cells; host or cells: peritoneal PMNs of male Dunkin-Hartley guinea-pigs, homogenized; 10,000 x g supernatant used as enzyme solution
T1 sequence (A0A286X958 1-674): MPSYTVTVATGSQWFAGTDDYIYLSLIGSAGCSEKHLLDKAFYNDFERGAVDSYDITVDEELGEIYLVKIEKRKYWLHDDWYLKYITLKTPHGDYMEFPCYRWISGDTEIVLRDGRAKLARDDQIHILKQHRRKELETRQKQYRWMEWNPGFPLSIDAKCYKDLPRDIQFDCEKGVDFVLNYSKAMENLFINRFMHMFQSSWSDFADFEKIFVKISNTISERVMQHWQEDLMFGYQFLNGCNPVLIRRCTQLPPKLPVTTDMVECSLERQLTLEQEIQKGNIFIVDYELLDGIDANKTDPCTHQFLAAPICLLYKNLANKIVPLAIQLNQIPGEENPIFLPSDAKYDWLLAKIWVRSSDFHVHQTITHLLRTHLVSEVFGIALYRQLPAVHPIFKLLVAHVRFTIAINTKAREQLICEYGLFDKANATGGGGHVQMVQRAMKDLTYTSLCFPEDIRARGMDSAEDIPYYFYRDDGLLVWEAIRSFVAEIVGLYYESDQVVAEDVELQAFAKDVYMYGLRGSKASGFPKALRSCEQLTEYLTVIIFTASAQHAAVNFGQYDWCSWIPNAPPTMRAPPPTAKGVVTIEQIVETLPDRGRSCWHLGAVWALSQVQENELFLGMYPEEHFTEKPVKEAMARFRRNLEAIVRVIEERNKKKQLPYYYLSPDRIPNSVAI
Description: 4b. In vitro determination of inhibitory activity on 5-lipoxygenase concentrated from peritoneal PMNs of the guinea-pig.
An inhibition of 5-lipoxygenase can be caused by direct inhibitory action of the substances on the enzyme and/or by interference with the activation of the enzyme. While in test 4a the 5-lipoxygenase inhibition of the substances was investigated in rat PMN cells, in test 4b the inhibitory activity of the substances was investigated on free 5-LO concentrated from guinea-pig PMN cells according to the method of D. Aharony et al., J. Biol. Chem. 261 (1986), 11512-11519 (1986).
The 5-LO was concentrated in a known manner from PMNs of male Dunkin-Hartley guinea-pigs (body weight 400 to 500 g) as follows. 10 ml of a solution containing 27.9 g/l of sodium thioglycolate were injected i.p. into the animals in order to induce the PMN invasion as a result of this inflammatory stimulus. After 22 hours, the animals were sacrificed by lethal ether anaesthesia. 70 ml of HBSS without Ca^++ and Mg^++ ions and containing 0.2% by weight of sodium citrate were then injected into the abdominal cavity. The cell suspension (>80% of the cells are PMNs) was withdrawn from the abdominal cavity, filtered through a cheese-making filter cloth, and washed twice with a 50 mM potassium phosphate buffer solution of pH 7.4, which contained 0.5 mM ethylenediaminetetraacetic acid, 1% by weight of gelatine and 20 μM indomethacin. The cells were resuspended, and the PMN suspension containing 10^8 cells/ml was homogenized three times for 15 seconds each in an ice-bath in a homogenizer of the Labsonic™ type set at high speed. The resulting suspension was centrifuged at 4° C. (15 minutes at 10,000×g). The supernatant liquid was used for the investigation as a solution of the free 5-LO enzyme.
The experiments were carried out at 37° C. for 7 minutes using 0.625 ml samples of this enzyme solution. For the experiments, the enzyme solution (=equivalent of 2.5×10^7 cells), 0.5 mM glutathione, 1 mM ATP and 0.3 mM calcium chloride were added to test tubes. […] of the test substance were added to the samples dissolved in sufficient dimethylformamide such that the dimethylformamide concentration in each test tube is 0.5%. Only dimethylformamide was added to the control samples. After 2 minutes, the formation of 5-(S)-hydroxy-6,8,11,14-eicosatetraenoic acid (=[…]) was initiated by addition 10 μM arachidonic acid. After 5 minutes, the reaction was terminated by addition of 0.625 ml of a mixture of methyl acetate/methanol/0.2 m citric acid 15:2:0.5 v/v/v. 5-HETE was extracted twice using this solvent mixture. The 5-HETE-containing phases were combined and evaporated to dryness under a nitrogen atmosphere. The residue was taken up in a mixture of methanol/water/acetic acid 75:21:0.02 v/v/v having a pH of 5.7, and the solution was investigated for its content of 5-HETE by means of reverse phase HPLC. To accomplish this, a […] silanized silica gel column (Hichrom® ODS2, 250×4.6 mm) was employed as the adsorbent and a mixture of methanol/water/acetic acid 75:21:0.02 adjusted to pH 5.7 with ammonia and having a flow rate of 1 ml/min was used as the eluent. 5-HETE, which was eluted as a single peak after 20 minutes, was identified by comparison with standard solutions eluted at the same time and determined using a UV light detector at a wavelength of 235 nm. Quantitative determination was carried out by comparison of the peak area obtained with peak areas occurring in the calibrated standard solutions. From the 5-HETE contents of the samples determined, the inhibitory activity of the test substances was calculated in % inhibition of 5-HETE synthesis in comparison to the control samples containing no test substance.

| inhibition at 10 µM | Structure (SMILES) |
| --- | --- |
| 53% | COc1ccc2c3c1c(C)c(-c1ccc(O)cc1)n3CC(CCN1CCN(c3cc(C)ccn3)CC1)O2 (centres unmarked) [Example 3, 2,3-Dihydro-5-(4-hydroxyphenyl)-7-methoxy-6-methyl-2-[2-(4-(4-methylpyridin-2-yl)piperazin-1-yl)ethyl]pyrrolo[1,2,3-de]-1,4-benzoxazine] |
| 100% | Cc1ccnc(N2CCN(CCC3Cn4c(-c5ccc(O)cc5)c(C)c5c(O)ccc(c54)O3)CC2)c1 (centres unmarked) [Example 4, 2,3-Dihydro-7-hydroxy-5-(4-hydroxyphenyl)-6-methyl-2-[2-(4-(4-methylpyridin-2-yl)piperazin-1-yl)ethyl]pyrrolo[1,2,3-de]-1,4-benzoxazine] |
| 88% | Cc1ccnc(N2CCN(C(=O)CCCC3Cn4c(-c5cc(C)c(O)c(C)c5)c(C)c5cccc(c54)O3)CC2)c1 (centres unmarked) [Example 9, 2,3-Dihydro-5-(3,5-dimethyl-4-hydroxyphenyl)-6-methyl-2-[4-(4-(4-methylpyridin-2-yl)piperazin-1-yl)-4-oxobutyl]-pyrrolo[1,2,3-de]-1,4-benzoxazine] |
| 100% | COc1cc(-c2c(C)c3cccc4c3n2CC(CCN2CCN(c3cc(C)ccn3)CC2)O4)ccc1O (centres unmarked) [Example 12] |
| 99% | Cc1ccnc(N2CCN(CCC3Cn4c(-c5ccc(O)c(O)c5)c(C)c5cccc(c54)O3)CC2)c1 (centres unmarked) [Example 13] |
| 94% | Cc1ccnc(N2CCN(C(=O)CCC3Cn4c(-c5ccc(O)cc5)c(C)c5cccc(c54)O3)CC2)c1 (centres unmarked) [Example 15] |
| 100% | Cc1ccnc(N2CCN(CCC3Cn4c(-c5cc(C)c(O)c(C)c5)c(C)c5cccc(c54)O3)CC2)c1 (centres unmarked) [Example 20] |
| 93% | Cc1cc(-c2c(C)c3cccc4c3n2CC(CCCC(=O)N2CCN(c3ccccn3)CC2)O4)cc(C)c1O (centres unmarked) [Example 23] |
| 92% | Cc1ccnc(N2CCN(C(=O)CCC3Cn4c(-c5cc(C)c(O)c(C)c5)c(C)c5cccc(c54)O3)CC2)c1 (centres unmarked) [Example 25] |
| 96% | Cc1cc(-c2c(C)c3cccc4c3n2CC(CCC(=O)N2CCN(c3ccccn3)CC2)O4)cc(C)c1O (centres unmarked) [Example 26] |
| 50% | Cc1cc(-c2c(C)c3c(F)ccc4c3n2CC(CCN2CCN(c3ccccn3)CC2)O4)cc(C)c1O (centres unmarked) [Example 27] |
| 44% | Cc1ccnc(N2CCN(CCC3Cn4c(-c5cc(C)c(O)c(C)c5)c(C)c5c(F)ccc(c54)O3)CC2)c1 (centres unmarked) [Example 28] |
| 67% | Cc1ccnc(N2CCN(CCCC3Cn4c(-c5cc(C)c(O)c(C)c5)c(C)c5c(F)ccc(c54)O3)CC2)c1 (centres unmarked) [Example 29] |
| 97% | Cc1ccc(N2CCN(C(=O)CCC3Cn4c(-c5ccc(O)cc5)c(C)c5cccc(c54)O3)CC2)nc1 (centres unmarked) [Example 34] |
| 100% | COc1cc(-c2c(C)c3cccc4c3n2CC(CCC(=O)N2CCN(c3ccc(C)cn3)CC2)O4)ccc1O (centres unmarked) [Example 39] |
| 55% | Cc1ccnc(N2CCN(CCC3Cn4c(-c5cc(C)c(O)c(C)c5)c(C)c5cc(F)cc(c54)O3)CC2)c1 (centres unmarked) [Example 42] |
| 77% | COc1cc2c3c(c1)c(C)c(-c1cc(C)c(O)c(C)c1)n3CC(CCN1CCN(c3cc(C)ccn3)CC1)O2 (centres unmarked) [Example 43] |
| 98% | Cc1ccnc(N2CCN(CCC3Cn4c(-c5cc(C)c(O)c(C)c5)c(C)c5cc(O)cc(c54)O3)CC2)c1 (centres unmarked) [Example 44] |
| 99% | Cc1cc(-c2c(C)c3cccc4c3n2CC(CCCCN2CCN(c3ccccn3)CC2)O4)cc(C)c1O (centres unmarked) [Example 65] |
| 100% | Cc1ccnc(N2CCN(C(=O)CCC3Cn4c(-c5cc(C)c(O)c(C)c5)c(C)c5c(O)ccc(c54)O3)CC2)c1 (centres unmarked) [Example 67] |
| 100% | Cc1ccnc(N2CCN(C(=O)CCC3Cn4c(-c5ccc(O)cc5)c(C)c5c(O)ccc(c54)O3)CC2)c1 (centres unmarked) [Example 69] |
| 100% | Cc1cc(-c2c(C)c3c(O)ccc4c3n2CC(CCC(=O)N2CCN(c3ccccn3)CC2)O4)cc(C)c1O (centres unmarked) [Example 71] |
| 100% | COc1cc(-c2c(C)c3c(O)ccc4c3n2CC(CCC(=O)N2CCN(c3ccccn3)CC2)O4)cc(C)c1O (centres unmarked) [Example 72] |
| 100% | Cc1ccnc(N2CCN(CCCC3Cn4c(-c5cc(C)c(O)c(C)c5)c(C)c5c(O)ccc(c54)O3)CC2)c1 (centres unmarked) [Example 73] |
| 100% | Cc1cccnc1N1CCN(CCCC2Cn3c(-c4cc(C)c(O)c(C)c4)c(C)c4c(O)ccc(c43)O2)CC1 (centres unmarked) [Example 74] |
| 100% | Cc1cc(-c2c(C)c3c(OCc4ccccc4)ccc4c3n2CC(CCC(=O)N2CCN(c3ccccn3)CC2)O4)cc(C)c1O (centres unmarked) [Example 75] |
